Test results: patent US20070259952A1 (H. LUNDBECK A/S, priority 2006, published 2007)
Like-named read-outs stand apart in the source and are kept apart here.

Tests used:
[1] = test system: dopamine cells in the VTA; test: In vivo assessment of dopamine neuron firing in rat ventral tegmental area
Method: In vivo assessment of dopamine neuron firing in rat ventral tegmental area was conducted as described by Schilstrom et al. (Neuroscience 125:957-64, 2004). Briefly, male Sprague Dawley rats (250-300 g) were anesthetized with chloral hydrate (400 mg/kg i.p.) and mounted in a stereotactic frame. Anesthesia was maintained throughout the experiment with periodical injections of chloral hydrate and body temperature was kept at 37° C. with a rectal thermometer connected to an electrical heating pad. Recording electrodes were pulled in a Narishige vertical puller from borosilicate glass capillaries with outer and inner diameters of 1.50 and 1.17 mm, respectively, and filled with 2% Pontamine Sky Blue in 2 M NaCl. […] The rat was killed with an overdose of anesthetic, and the brain was removed and placed in 25% sucrose 10% paraformaldehyde solution. Sections of the VTA were cut ([…]) and stained with Neutral Red and the recording sites were verified by light microscopy.

[2] = test system: mesocorticolimbic dopaminergic neurons in the VTA; conditions: cited from earlier work; for firing rate of mesocorticolimbic dopaminergic neurons in the VTA: Prisco and Eposito 1995, Di Masico et al 1998
[3] = test system: NMDA-induced currents in pyramidal cells of the medial prefrontal cortex; test: Facilitation of NMDA-induced currents in pyramidal cells of the medial prefrontal cortex in vitro (brain slices, voltage-clamp); type: cell-based, rat

With `CN(C)CCCC1(c2ccc(F)cc2)OCc2cc(C#N)ccc21` (racemic) [citalopram] as the compound, how does the Emax ([1]; Rattus norvegicus, Neuron, FIG. 2, read-out: maximal response, burst difference) read?
The Emax was roughly 10%.

With `CN(C)CCC[C@]1(c2ccc(F)cc2)OCc2cc(C#N)ccc21` [R-citalopram] as the compound, how does the “effect on the escitalopram-induced increase of burst firing” value ([1]; 320 μg/kg with escitalopram 320 μg/kg, FIG. 2) read?
Its value is “significantly inhibits the effect of escitalopram”.

And the “effect on firing rate of dopamine cells in the VTA” value (shortened to “effect on firing rate”) ([1]; given alone, dose not stated, FIG. 1)?
The value was “unaffected”.

What about the “effect on burst firing of dopaminergic cells in the VTA” value ([1]; given alone, FIG. 2) of the same compound?
Its value is “no effect on burst firing”.

And the “effect on the escitalopram-induced increase of firing rate” value ([1]; pre-treatment with 320 μg/kg before escitalopram 320 μg/kg, FIG. 1)?
Its value is “blocked”.

Which “effect on firing rate” value ([1]; 320 μg/kg, FIG. 1) does the source give for `CN(C)CCC[C@@]1(c2ccc(F)cc2)OCc2cc(C#N)ccc21` [escitalopram, (S)-1-[3-(dimethylamino)propyl]-1-(4-fluorophenyl)-1,3-dihydro-5-isobenzofurancarbonitrile] here?
The value was “elevates firing rate statistically significant”.

What about the “effect on burst firing of dopaminergic cells in the VTA” value ([1]; doses equal to and above 160 μg/kg, FIG. 2) of the same compound?
Its value is “increases burst firing statistically significant dose-dependently”.

What about the “effect on firing rate” value ([1]; higher dose 640 μg/kg, FIG. 1) of the same compound?
The value was “appears to be maintained”.

What about the burst difference ([1]; highest dose tested 640 μg/kg, FIG. 2) of the same compound?
Its burst difference is “about 20%”.

With `CNCCC(Oc1ccc(C(F)(F)F)cc1)c1ccccc1` (stereo not shown) [fluoxetine] as the compound, how does the “firing rate of mesocorticolimbic dopaminergic neurons in the VTA” value [2] read?
Its value is “slight inhibition”.

For `COCCCC/C(=N\OCCN)c1ccc(C(F)(F)F)cc1` [fluvoxamine], which “firing rate of mesocorticolimbic dopaminergic neurons in the VTA” value [2] is on record?
Its value is “slight inhibition”.

Which “firing rate of mesocorticolimbic dopaminergic neurons in the VTA” value [2] does the source give for `Fc1ccc([C@@H]2CCNC[C@H]2COc2ccc3c(c2)OCO3)cc1` [paroxetine] here?
The value was “slight inhibition”.

Which “effect on NMDA-induced currents in pyramidal cells of the prefrontal cortex” value [3] does the source give for `CCOc1ccccc1OC(c1ccccc1)C1CNCCO1` (stereo not shown) [reboxetine] here?
The value was “increases NMDA-induced currents”.

What about the “excitability and burst firing of dopaminergic neurons in the VTA” value ([2]; Linner et al, 2001) of the same compound?
The value was “enhances the excitability of dopaminergic neurons in the VTA with a preferential activation of their burst firing mode”.

Which “effect on NMDA-induced currents in pyramidal cells of the prefrontal cortex” value ([3]; bath application, holding potential −60 mV, FIG. 3) does the source give for `Cc1nc2n(c(=O)c1CCN1CCC(c3noc4cc(F)ccc34)CC1)CCCC2` [risperidone] here?
Its value is “increase NMDA-induced currents”.

Which “firing rate of mesocorticolimbic dopaminergic neurons in the VTA” value [2] does the source give for `CN[C@H]1CC[C@@H](c2ccc(Cl)c(Cl)c2)c2ccccc21` [sertraline] here?
The value was “slight inhibition”.
